Assay results as given in US20250003008A1, “METHODS FOR TREATMENT OF CANCER” (The Johns Hopkins University, priority 2021, published 2025).
Like-named read-outs stand apart in the source and are kept apart here.

Experiments:
[1] = Procedure: PrE0505, a phase 2 single arm multicenter study, enrolled human patients with previously untreated unresectable MPM (NCT02899195, FIG. 1). […] Patients with stable or responding tumors after concurrent therapy, continued on maintenance durvalumab for a maximum duration of one year from the first study treatment. A protocol-defined safety review was performed after enrollment of the first 6 and 15 patients. Pre-specified dose-limiting toxicities during the safety run-in period included any immune-mediated adverse event of ≥grade 4 or any non-resolving immune-mediated adverse event of ≥grade 3 during the first two cycles of therapy.
Imaging was performed every 6 weeks during the concurrent phase of treatment and every 9 weeks during maintenance durvalumab. Best objective response was evaluated by RECIST Version 1.1 criteria modified for mesothelioma. Toxicity was determined using the CTCAE Version 4.03 criteria.
Secondary objectives included safety and tolerability of durvalumab and durvalumab in combination with chemotherapy in subjects with malignant pleural mesothelioma, percentage of patients progression-free at 24 weeks from the time of registration (response coded based on modified RECIST 1.1 criteria for mesothelioma), progression-free survival-measured from the time of study registration until radiologic progression, clinical progression or death, best objective response rate with evaluation continued up to 1 year (response coded based on modified RECIST Version 1.1 criteria for mesothelioma). Exploratory objectives included assessment of tumor baseline PD-L1 expression, the genomic and neoantigen landscape of tumors, dynamics of circulating cell free tumor DNA and other blood-based biomarkers.

[2] = system: malignant pleural mesothelioma; conditions: historical control, phase 3 study; cited from earlier work
[3] = of the patients who received that agent within the regimen

In the case of N.N.O=C([O-])C1(C(=O)[O-])CCC1.[Pt+2] [carboplatin], the “patients who received a dose reduction due to toxicity” value [1, 3] is reported as 12%.

For N.N.[Cl][Pt][Cl] [cisplatin], the survival [2] is listed as 9.3 months.

For Nc1nc2[nH]cc(CCc3ccc(C(=O)N[C@@H](CCC(=O)O)C(=O)O)cc3)c2c(=O)[nH]1 [pemetrexed], the “patients who received a dose reduction due to toxicity” value ([1]; human, in vivo) was 2%.

In the case of durvalumab, the “patients who received a dose reduction due to toxicity” value [1, 3] is reported as “no patients”.
